Test results published in patent publication US20250049037A1, “HERBICIDAL ACTIVITY OF ALKYL PHOSPHINATES” (priority 2021, published 2025).

Tests used:
Type in all cases: in vivo
[1] = tested on: Amaranthus retroflexus (AMARE); test: Greenhouse herbicidal test, post-emergence; settings: postemergence, application rate 5 kg/ha, scale 0 to 100
From the text: (§1) The culture containers used were plastic flowerpots containing loamy sand with approximately 3.0% of humus as the substrate. The seeds of the test plants were sown separately for each species.
(§2) For the post-emergence treatment, the test plants were first grown to a height of 2 to 15 cm, depending on the plant habit, and only then treated with the active ingredients which had been suspended or emulsified in water. For this purpose, the test plants were either sown directly and grown in the same containers, or they were first grown separately as seedlings and transplanted into the test containers a few days prior to treatment.
(§3) Depending on the species, the test plants were kept at 10-25° C. or 20-35° C., respectively.
(§4) The test period extended over 2 to 4 weeks. During this time, the test plants were tended, and their response to the individual treatments was evaluated.
(§5) Evaluation was carried out using a scale from 0 to 100. 100 means no emergence of the test plants, or complete destruction of at least the aerial moieties, and 0 means no damage, or normal course of growth. A moderate herbicidal activity is given at values of 40 to 59, good herbicidal activity is given at values of more than 59 to 80 and a very good herbicidal activity is given at values of more than 80 to 100.

[2] = tested on: Echinocloa crus-galli (ECHCG); test: Greenhouse herbicidal test, post-emergence; settings: postemergence, application rate 5 kg/ha, scale 0 to 100
From the text: as §1, §2, §3, §4, §5

[3] = tested on: Apera spica-venti (APESV); test: Greenhouse herbicidal test, pre-emergence; settings: application rate 5 kg/ha, scale 0 to 100
From the text: as §1
For the pre-emergence treatment, the active ingredients, which had been suspended or emulsified in water, were applied directly after sowing by means of finely distributing nozzles. The containers were irrigated gently to promote germination and growth and subsequently covered with transparent plastic hoods until the test plants had rooted. This cover caused uniform germination of the test plants, unless this had been impaired by the active ingredients.
as §3, §4, §5

[4] = tested on: Alopercurus myosuroides (ALOMY); test: Greenhouse herbicidal test, post-emergence; settings: postemergence, application rate 5 kg/ha, scale 0 to 100
From the text: as §1, §2, §3, §4, §5

Setaria viridis (SETVI) = test: Greenhouse herbicidal test, post-emergence; settings: postemergence, application rate 5 kg/ha, scale 0 to 100
From the text: as §1, §2, §3, §4, §5

Compound: CCCCOP(C)(=O)CCC(NC(N)=O)C(=O)O (centres unmarked) [Compound f, 4-[butoxy(methyl)phosphoryl]-2-ureido-butanoic acid]
- herbicidal activity against AMARE [1]: good (good herbicidal activity is given at values of more than 59 to 80)
- herbicidal activity against ECHCG [2]: good (good herbicidal activity is given at values of more than 59 to 80)

Compound: CP(=O)(O)CC[C@@H](NC(N)=O)C(=O)O [Compound b]
- herbicidal activity against APESV [3]: good (good herbicidal activity is given at values of more than 59 to 80)

Compound: CP(=O)(O)CCC(NC(N)=O)C(=O)O (centres unmarked) [Compound a]
- herbicidal activity against ALOMY [4]: moderate (A moderate herbicidal activity is given at values of 40 to 59)

Compound: CP(=O)(O)CCC1NC(=O)NC1=O (centres unmarked) [Compound e]
- herbicidal activity against SETVI (Setaria viridis (SETVI)): good (good herbicidal activity is given at values of more than 59 to 80)
